Data reported in ChEMBL document CHEMBL4251553, “Synthesis, anticancer evaluation and pharmacokinetic study of novel 10-O-phenyl ethers of dihydroartemisinin” (Eur J Med Chem, 2017).
Activity calls are given as the source filed them. The calls are words filed in the database; no cut-off is given here.

Assays:
[1] = MRT (0 to infinity) in Sprague-Dawley rat at 10 mg/kg, iv administered as single dose by LC-MS/MS analysis; type: ADME, organism-based; details: in vivo
[2] = Cmax in Sprague-Dawley rat at 10 mg/kg, iv administered as single dose by LC-MS/MS analysis; type: ADME, organism-based; parameters: dose 10 mg/kg, route intravenous; details: in vivo
[3] = test system: MCF7; test: Cell cycle arrest in human MCF7 cells assessed as accumulation at sub-G1 phase at 0.5 uM after 48 hrs by propidium iodide staining based flow cytometry (reference value: 0.18%); type: functional
[4] = test system: NCI/ADR-RES; test: Cell cycle arrest in human MCF7/ADR cells assessed as accumulation at G2/M phase at 1 uM after 48 hrs by propidium iodide staining based flow cytometry (reference value: 31.94%); type: functional
[5] = Plasma concentration in Sprague-Dawley rat at 10 mg/kg, iv administered as single dose measured at 4 hrs post dosing by LC-MS/MS analysis; type: ADME, organism-based
[6] = test system: MCF7; test: Cell cycle arrest in human MCF7 cells assessed as accumulation at G2/M phase at 0.5 uM after 24 hrs by propidium iodide staining based flow cytometry (reference value: 22.57%); type: functional
[7] = test system: NCI/ADR-RES; test: Cell cycle arrest in human MCF7/ADR cells assessed as accumulation at G0/G1 phase at 1 uM after 48 hrs by propidium iodide staining based flow cytometry (reference value: 38.76%); type: functional
[8] = test system: NCI/ADR-RES; test: Cell cycle arrest in human MCF7/ADR cells assessed as accumulation at G2/M phase at 0.5 uM after 48 hrs by propidium iodide staining based flow cytometry (reference value: 31.94%); type: functional
[9] = test system: NCI/ADR-RES; test: Cell cycle arrest in human MCF7/ADR cells assessed as accumulation at G2/M phase at 0.5 uM after 24 hrs by propidium iodide staining based flow cytometry (reference value: 27.75%); type: functional
[10] = test system: MCF7; test: Cell cycle arrest in human MCF7 cells assessed as accumulation at S-phase at 0.5 uM after 48 hrs by propidium iodide staining based flow cytometry (reference value: 18.39%); type: functional
[11] = Apparent clearance in Sprague-Dawley rat at 10 mg/kg, iv administered as single dose by LC-MS/MS analysis; type: ADME, organism-based; details: in vivo, read-out: CL(app) (converted)
[12] = test system: NCI/ADR-RES; test: Antiproliferative activity against human MCF7/ADR cells after 96 hrs by MTT assay; type: functional
[13] = Apparent terminal half life in Sprague-Dawley rat at 10 mg/kg, iv administered as single dose by LC-MS/MS analysis; type: ADME, organism-based; details: in vivo, read-out: betat1/2(app) (converted)
[14] = test system: NCI/ADR-RES; test: Cell cycle arrest in human MCF7/ADR cells assessed as accumulation at S-phase at 0.5 uM after 24 hrs by propidium iodide staining based flow cytometry (reference value: 25.87%); type: functional
[15] = test system: MCF7; test: Cell cycle arrest in human MCF7 cells assessed as accumulation at G0/G1 phase at 1 uM after 24 hrs by propidium iodide staining based flow cytometry (reference value: 57.83%); type: functional
[16] = test system: NCI/ADR-RES; test: Effect on P-gp protein expression in human MCF7/ADR cells at 0.05 to 0.1 uM after 24 to 48 hrs by Western blot analysis; type: functional, cell-based
[17] = Plasma concentration in Sprague-Dawley rat at 10 mg/kg, iv administered as single dose measured at 24 hrs post dosing by LC-MS/MS analysis; type: ADME, organism-based
[18] = test system: NCI/ADR-RES; test: Cell cycle arrest in human MCF7/ADR cells assessed as accumulation at sub-G1 phase at 0.5 uM after 48 hrs by propidium iodide staining based flow cytometry (reference value: 0.25%); type: functional
[19] = test system: NCI/ADR-RES; test: Cell cycle arrest in human MCF7/ADR cells assessed as accumulation at sub-G1 phase at 1 uM after 48 hrs by propidium iodide staining based flow cytometry (reference value: 0.25%); type: functional
[20] = Apparent volume of distribution in Sprague-Dawley rat at 10 mg/kg, iv administered as single dose by LC-MS/MS analysis; type: ADME, organism-based; details: in vivo, read-out: Vz
[21] = test system: NCI/ADR-RES; test: Cell cycle arrest in human MCF7/ADR cells assessed as accumulation at sub-G1 phase at 1 uM after 24 hrs by propidium iodide staining based flow cytometry (reference value: 1.08%); type: functional
[22] = test system: MCF7; test: Cell cycle arrest in human MCF7 cells assessed as accumulation at S-phase at 1 uM after 48 hrs by propidium iodide staining based flow cytometry (reference value: 18.39%); type: functional
[23] = test system: NCI/ADR-RES; test: Cell cycle arrest in human MCF7/ADR cells assessed as accumulation at G0/G1 phase at 0.5 uM after 48 hrs by propidium iodide staining based flow cytometry (reference value: 38.76%); type: functional
[24] = test system: MCF7; test: Cell cycle arrest in human MCF7 cells assessed as accumulation at G0/G1 phase at 0.5 uM after 48 hrs by propidium iodide staining based flow cytometry (reference value: 57.21%); type: functional
[25] = Plasma concentration in Sprague-Dawley rat at 10 mg/kg, iv administered as single dose measured at 0.5 hrs post dosing by LC-MS/MS analysis; type: ADME, organism-based
[26] = test system: NCI/ADR-RES; test: Downregulation of Cyclin-D1 protein expression in human MCF7/ADR cells at 0.05 to 0.1 uM after 24 to 48 hrs by Western blot analysis; type: functional, cell-based
[27] = test system: NCI/ADR-RES; test: Cell cycle arrest in human MCF7/ADR cells assessed as accumulation at sub-G1 phase at 0.5 uM after 24 hrs by propidium iodide staining based flow cytometry (reference value: 1.08%); type: functional
[28] = Plasma concentration in Sprague-Dawley rat at 10 mg/kg, iv administered as single dose measured at 1 hr post dosing by LC-MS/MS analysis; type: ADME, organism-based
[29] = test system: MCF7; test: Cell cycle arrest in human MCF7 cells assessed as accumulation at sub-G1 phase at 0.5 uM after 24 hrs by propidium iodide staining based flow cytometry (reference value: 1.78%); type: functional
[30] = Plasma concentration in Sprague-Dawley rat at 10 mg/kg, iv administered as single dose measured at 0.083 hrs post dosing by LC-MS/MS analysis; type: ADME, organism-based
[31] = Plasma concentration in Sprague-Dawley rat at 10 mg/kg, iv administered as single dose measured at 0.25 hrs post dosing by LC-MS/MS analysis; type: ADME, organism-based
[32] = test system: MCF7; test: Cell cycle arrest in human MCF7 cells assessed as accumulation at S-phase at 0.5 uM after 24 hrs by propidium iodide staining based flow cytometry (reference value: 18.24%); type: functional
[33] = test system: NCI/ADR-RES; test: Cell cycle arrest in human MCF7/ADR cells assessed as accumulation at G2/M phase at 1 uM after 24 hrs by propidium iodide staining based flow cytometry (reference value: 27.75%); type: functional
[34] = Plasma concentration in Sprague-Dawley rat at 10 mg/kg, iv administered as single dose measured at 8 hrs post dosing by LC-MS/MS analysis; type: ADME, organism-based
[35] = test system: MCF7; test: Antiproliferative activity against human MCF7 cells after 96 hrs by MTT assay; type: functional; details: MCF7, 96 h
[36] = test system: NCI/ADR-RES; test: Cell cycle arrest in human MCF7/ADR cells assessed as accumulation at S-phase at 0.5 uM after 48 hrs by propidium iodide staining based flow cytometry (reference value: 29.45%); type: functional
[37] = test system: MCF7; test: Cell cycle arrest in human MCF7 cells assessed as accumulation at G0/G1 phase at 1 uM after 48 hrs by propidium iodide staining based flow cytometry (reference value: 57.21%); type: functional

For `C[C@H]1[C@@H](Oc2ccc(-c3cc(-c4ccccc4)[nH]n3)cc2)O[C@@H]2O[C@@]3(C)CC[C@H]4[C@H](C)CC[C@@H]1[C@@]24OO3`, the MRT inf [1] was 2.28 h, the Cmax [2] was 4460 ng/mL and the Activity [3] was 0.38%. The Activity [4] was 23.47%, the concentration at 4 h [5] was 147 ng/mL and the Activity [6] was 16.94%. The Activity [7] was 56.01%, the Activity [8] was 30.15% and the Activity [9] was 26.29%. The Activity [10] was 3.87%, the clearance [11] was 57.7 mL/min/kg and the GI50 [12] was 18 nM. For the same compound, the half-life [13] was 215 min, the Activity [14] was 21.64% and the Activity [15] was 72.58%. The Activity [16] was “inactive”, the concentration at 24 h [17] was 2.65 ng/mL and the Activity [18] was 2.81%. The Activity [19] was 10.99%, the Vd [20] was 18 L/kg and the Activity [21] was 4.73%. For the same compound, the Activity [22] was 2.14%, the Activity [23] was 46.94% and the Activity [24] was 83.54%. The concentration at 0.5 h [25] was 583 ng/mL, the Activity [26] was “inactive” and the Activity [27] was 1.89%. It also gave a concentration at 1 h [28] of 436 ng/mL, an Activity [29] of 0.44% and a concentration at 0.083 h [30] of 4460 ng/mL. For the same compound, the concentration at 0.25 h [31] was 1720 ng/mL, the Activity [32] was 11.95% and the Activity [33] was 23.83%. It also gave a concentration at 8 h [34] of 34.1 ng/mL, a GI50 [35] of 210 nM and an Activity [36] of 20.41%. The Activity [37] was 85.04%.
